# Test system: SA 9218
# Test: MIC by standard agar dilution method
# Type: cell-based
# Conditions: Mueller Hinton agar, 10^4 to 10^5 cells per spot, incubated overnight at 35° C., lowest concentration that inhibits visible growth
# Outline: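 MIC read after overnight 35 °C incubation as lowest drug level preventing visible growth. Inoculum of roughly 10^4–10^5 cells per spot (0.5 McFarland, 1:20 in TSB) applied to Mueller Hinton agar containing serial 2-fold compound dilutions.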
MIC,SA 9218 MIC,Structure (SMILES)
1 µg/mL,–,N#Cc1ccc(NC(=O)c2cccc(Oc3cccc(F)c3)c2)c(C(=O)O)c1 [PHA-562731]
0.25 µg/mL,–,Cc1ccccc1Oc1cccc(C(=O)Nc2ccc(C#N)cc2C(=O)O)c1 [PHA-562733]
0.25 µg/mL,–,N#Cc1ccc(NC(=O)c2ccc3c(c2)S(=O)(=O)N(c2ccc(Cl)cc2)CC3)c(C(=O)O)c1 [PHA-562745]
4 µg/mL,–,C[C@H](c1ccccc1)N(C)S(=O)(=O)c1cccc(C(=O)Nc2ccc(C#N)cc2C(=O)O)c1 [PHA-562862]
2 µg/mL,–,C[C@@H](c1ccccc1)N(C)S(=O)(=O)c1cccc(C(=O)Nc2ccc(C#N)cc2C(=O)O)c1 [PHA-562863]
2 µg/mL,–,O=C(Nc1ccc(-c2ccc(Cl)cc2)cc1C(=O)O)c1cccc(S(=O)(=O)N2CCc3cc(Cl)ccc32)c1 [PHA-563274]
2 µg/mL,–,O=C(Nc1ccc(-c2cccc([N+](=O)[O-])c2)cc1C(=O)O)c1cccc(S(=O)(=O)N2CCc3cc(Cl)ccc32)c1 [PHA-563275]
2 µg/mL,–,N#Cc1ccc(-c2ccc(NC(=O)c3cccc(S(=O)(=O)N4CCc5cc(Cl)ccc54)c3)c(C(=O)O)c2)cc1 [PHA-563276]
2 µg/mL,–,Cc1csc(-c2ccc(NC(=O)c3cccc(S(=O)(=O)N4CCc5cc(Cl)ccc54)c3)c(C(=O)O)c2)c1 [PHA-563277]
2 µg/mL,–,O=C(Nc1ccc(-c2ccc(F)cc2)cc1C(=O)O)c1cccc(S(=O)(=O)N2CCc3cc(Cl)ccc32)c1 [PHA-563278]
0.5 µg/mL,–,O=C(Nc1ccc(-c2ccccc2C(F)(F)F)cc1C(=O)O)c1cccc(S(=O)(=O)N2CCc3cc(Cl)ccc32)c1 [PHA-563279]
1 µg/mL,–,O=C(Nc1ccc(-c2cc(C(F)(F)F)cc(C(F)(F)F)c2)cc1C(=O)O)c1cccc(S(=O)(=O)N2CCc3cc(Cl)ccc32)c1 [PHA-563280]
1 µg/mL,–,O=C(Nc1ccc(-c2ccc(F)cc2F)cc1C(=O)O)c1cccc(S(=O)(=O)N2CCc3cc(Cl)ccc32)c1 [PHA-563281]
1 µg/mL,–,Cc1ccc(-c2ccc(NC(=O)c3cccc(S(=O)(=O)N4CCc5cc(Cl)ccc54)c3)c(C(=O)O)c2)s1 [PHA-563282]
16 µg/mL,–,CC(C)(C)c1ccc(-c2ccc(NC(=O)c3cccc(S(=O)(=O)N4CCc5cc(Cl)ccc54)c3)c(C(=O)O)c2)cc1 [PHA-563283]
2 µg/mL,–,O=C(Nc1ccc(-c2cccc(C(F)(F)F)c2)cc1C(=O)O)c1cccc(S(=O)(=O)N2CCc3cc(Cl)ccc32)c1 [PHA-563284]
2 µg/mL,–,O=C(Nc1ccc(-c2ccc(C(F)(F)F)cc2)cc1C(=O)O)c1cccc(S(=O)(=O)N2CCc3cc(Cl)ccc32)c1 [PHA-563285]
> 128 µg/mL,–,O=C(Nc1ccc(-c2ccccn2)cc1C(=O)O)c1cccc(S(=O)(=O)N2CCc3cc(Cl)ccc32)c1 [PHA-563324]
0.5 µg/mL,–,COc1ccc(Oc2cccc(C(=O)Nc3ccc(C#N)cc3C(=O)O)c2)cc1 [PHA-564215]
1 µg/mL,–,N#Cc1ccc(NC(=O)c2cccc(Oc3cccc([N+](=O)[O-])c3)c2)c(C(=O)O)c1 [PHA-564218]
0.25 µg/mL,–,N#Cc1ccc(NC(=O)c2cccc(S(=O)(=O)N3CCCCC3)c2)c(C(=O)O)c1 [PHA-564750]
–,0.5 µg/mL,O=C(Nc1ccc(Br)cc1C(=O)O)c1cccc(C(O)c2ccccc2)c1 (centres unmarked) [PHA-566947]
1 µg/mL,–,O=C(Nc1ccc(Br)cc1C(=O)O)c1cccc(C(O)c2ccccc2)c1 (centres unmarked) [PHA-566948]
1 µg/mL,–,O=C(O)c1cc([N+](=O)[O-])ccc1/C=C/c1cccc(S(=O)(=O)N2CCc3cc(Cl)ccc32)c1 [PHA-568196]
16 µg/mL,–,O=C(O)c1ccc([N+](=O)[O-])cc1/C=C\c1cccc(S(=O)(=O)N2CCc3cc(Cl)ccc32)c1 [PHA-568197]

MIC,SA 9218 MIC,Structure (SMILES)
2 µg/mL,–,Cc1ccccc1-c1ccc(NC(=O)c2cccc(S(=O)(=O)N3CCc4cc(Cl)ccc43)c2)c(C(=O)O)c1 [PHA-568205]
2 µg/mL,–,O=C(Nc1ccc(-c2ccc(Cl)s2)cc1C(=O)O)c1cccc(S(=O)(=O)N2CCc3cc(Cl)ccc32)c1 [PHA-568206]
16 µg/mL,–,O=C(Nc1ccc(Br)cc1C(=O)O)c1ccc(S(=O)(=O)N2CCCC2)cc1 [PHA-568376]
2 µg/mL,–,O=C(Nc1ccc(Br)cc1C(=O)O)c1cccc(S(=O)(=O)N2CCCC2)c1 [PHA-568378]
–,0.5 µg/mL,N#Cc1ccc(NC(=O)c2cccc(S(=O)(=O)N3CCOCC3)c2)c(C(=O)O)c1 [PHA-568420]
0.125 µg/mL,–,COc1cccc2ccn(S(=O)(=O)c3cccc(C(=O)Nc4ccc(C#N)cc4C(=O)O)c3)c12 [PHA-568422]
1 µg/mL,–,COc1ccc2ccn(S(=O)(=O)c3cccc(C(=O)Nc4ccc(C#N)cc4C(=O)O)c3)c2c1 [PHA-568424]
8 µg/mL,–,N#Cc1ccc(NC(=O)c2cc(CCO)cc(S(=O)(=O)N3CCc4ccccc43)c2)c(C(=O)O)c1 [PHA-568425]
0.125 µg/mL,–,N#Cc1ccc(NC(=O)c2cccc(S(=O)(=O)n3ccc4cc(F)ccc43)c2)c(C(=O)O)c1 [PHA-568461]
8 µg/mL,–,COc1ncc(-c2ccc(NC(=O)c3cccc(S(=O)(=O)N4CCc5cc(Cl)ccc54)c3)c(C(=O)O)c2)c(OC)n1 [PHA-568906]
8 µg/mL,–,N#Cc1ccc(NC(=O)c2ccc(C#Cc3ccccc3)cc2)c(C(=O)O)c1 [PHA-568907]
0.5 µg/mL,–,Cl.N#Cc1ccc(NC(=O)c2cccc(SCc3ccncc3)c2)c(C(=O)O)c1 [PHA-569044A]
0.25 µg/mL,–,N#Cc1ccc(NC(=O)c2cccc(SCc3ccncc3)c2)c(C(=O)O)c1 [PHA-569044]
1 µg/mL,–,CC1CCCN1S(=O)(=O)c1cccc(C(=O)Nc2ccc(C#N)cc2C(=O)O)c1 (centres unmarked) [PHA-569064]
1 µg/mL,–,CC1CCC(C)N1S(=O)(=O)c1cccc(C(=O)Nc2ccc(C#N)cc2C(=O)O)c1 (centres unmarked) [PHA-569077]
0.25 µg/mL,–,N#Cc1ccc(/C=C/c2cccc(S(=O)(=O)N3CCc4cc(Cl)ccc43)c2)c(C(=O)O)c1 [PHA-569887]
1 µg/mL,–,N#Cc1ccc(NC(=O)c2cccc(OCc3ccccc3)c2)c(C(=O)O)c1 [PHA-569974]
16 µg/mL,–,Cc1noc(C)c1-c1ccc(NC(=O)c2cccc(S(=O)(=O)N3CCc4cc(Cl)ccc43)c2)c(C(=O)O)c1 [PHA-569977]
2 µg/mL,–,N#Cc1ccc(NC(=O)c2cccc(C(=O)C3CCCC3)c2)c(C(=O)O)c1 [PHA-570042]
1 µg/mL,–,O=C(Nc1ccc(Cl)cc1C(=O)O)c1cc(Br)cc(S(=O)(=O)N2CCc3ccccc32)c1 [PHA-570949]
8 µg/mL,–,COc1cccc(C(=O)Nc2ccc(C#N)cc2C(=O)O)c1 [PHA-571151]
64 µg/mL,–,COc1ccc(Br)c(C(=O)Nc2ccc(C#N)cc2C(=O)O)c1 [PHA-571153]
32 µg/mL,–,N#Cc1ccc(NC(=O)c2cccc(Cl)c2)c(C(=O)O)c1 [PHA-571155]
32 µg/mL,–,CN(C)c1ccc(C(=O)Nc2ccc(C#N)cc2C(=O)O)cc1 [PHA-571157]
> 128 µg/mL,–,N#Cc1ccc(NC(=O)c2cccc(S(=O)(=O)N3CCc4ccccc43)c2)c(C(=O)O)c1 [PHA-571161]

MIC,SA 9218 MIC,Structure (SMILES)
8 µg/mL,–,CC(C)CN(CC(C)C)S(=O)(=O)c1cccc(C(=O)Nc2ccc(C#N)cc2C(=O)O)c1 [PHA-571164]
32 µg/mL,–,N#Cc1ccc(NC(=O)c2cccc(S(=O)(=O)N3CCC3)c2)c(C(=O)O)c1 [PHA-571167]
32 µg/mL,–,CN(CCc1ccccc1)S(=O)(=O)c1ccc(C(=O)Nc2ccc(C#N)cc2C(=O)O)cc1 [PHA-571169]
64 µg/mL,–,N#Cc1ccc(NC(=O)c2cccc(S(=O)(=O)N3CCN(c4ncccn4)CC3)c2)c(C(=O)O)c1 [PHA-571170]
32 µg/mL,–,CC(=O)c1ccc(N2CCN(S(=O)(=O)c3cccc(C(=O)Nc4ccc(C#N)cc4C(=O)O)c3)CC2)cc1 [PHA-571172]
64 µg/mL,–,N#Cc1ccc(NC(=O)c2ccc(S(=O)(=O)N3CCCCCC3)cc2)c(C(=O)O)c1 [PHA-571174]
64 µg/mL,–,CCN(CC)C(=O)C1CCCN(S(=O)(=O)c2cccc(C(=O)Nc3ccc(C#N)cc3C(=O)O)c2)C1 (centres unmarked) [PHA-571176]
64 µg/mL,–,CC1CN(S(=O)(=O)c2ccc(C(=O)Nc3ccc(C#N)cc3C(=O)O)cc2)CC(C)O1 (centres unmarked) [PHA-571182]
–,32 µg/mL,CC(C(O)c1ccccc1)N(C)S(=O)(=O)c1ccc(C(=O)Nc2ccc(C#N)cc2C(=O)O)cc1 (centres unmarked) [PHA-571183]
128 µg/mL,–,CN(C1CCCCC1)S(=O)(=O)c1cccc(C(=O)Nc2ccc(C#N)cc2C(=O)O)c1 [PHA-571186]
8 µg/mL,–,N#Cc1ccc(NC(=O)c2ccc(S(=O)(=O)N3CCC(C#N)(c4ccccc4)CC3)cc2)c(C(=O)O)c1 [PHA-571188]
64 µg/mL,–,CCC1CCCCN1S(=O)(=O)c1ccc(C(=O)Nc2ccc(C#N)cc2C(=O)O)cc1 (centres unmarked) [PHA-571189]
4 µg/mL,–,COc1cc2c(cc1OC)CN(S(=O)(=O)c1cccc(C(=O)Nc3ccc(C#N)cc3C(=O)O)c1)CC2 [PHA-571194]
64 µg/mL,–,CN(CCC(O)c1ccccc1)S(=O)(=O)c1cccc(C(=O)Nc2ccc(C#N)cc2C(=O)O)c1 (centres unmarked) [PHA-571196]
16 µg/mL,–,CCCCN(CC)S(=O)(=O)c1cccc(C(=O)Nc2ccc(C#N)cc2C(=O)O)c1 [PHA-571197]
> 128 µg/mL,–,COc1cc2c(cc1OC)CN(S(=O)(=O)c1ccc(C(=O)Nc3ccc(C#N)cc3C(=O)O)cc1)CC2 [PHA-571198]
64 µg/mL,–,N#Cc1ccc(NC(=O)c2ccc(S(=O)(=O)N3CCN(c4ccc([N+](=O)[O-])cc4)CC3)cc2)c(C(=O)O)c1 [PHA-571199]
128 µg/mL,–,CCN(CC)C(=O)C1CCCN(S(=O)(=O)c2ccc(C(=O)Nc3ccc(C#N)cc3C(=O)O)cc2)C1 (centres unmarked) [PHA-571202]
32 µg/mL,–,CCCCN(CC#N)S(=O)(=O)c1ccc(C(=O)Nc2ccc(C#N)cc2C(=O)O)cc1 [PHA-571203]
32 µg/mL,–,CC(C)N(Cc1ccccc1)S(=O)(=O)c1ccc(C(=O)Nc2ccc(C#N)cc2C(=O)O)cc1 [PHA-571205]
32 µg/mL,–,N#Cc1ccc(NC(=O)c2ccc(S(=O)(=O)Nc3ccc4c(c3)CCC4)cc2)c(C(=O)O)c1 [PHA-571207]
64 µg/mL,–,N#Cc1ccc(NC(=O)c2cccc(S(=O)(=O)N3CCN(c4ccccc4)CC3)c2)c(C(=O)O)c1 [PHA-571208]
16 µg/mL,–,CCCCN(CC)S(=O)(=O)c1ccc(C(=O)Nc2ccc(C#N)cc2C(=O)O)cc1 [PHA-571214]
8 µg/mL,–,CN(CCc1ccccc1)S(=O)(=O)c1cccc(C(=O)Nc2ccc(C#N)cc2C(=O)O)c1 [PHA-571215]
